Data from US6355799B1, “Substituted benzene compounds, process for their preparation, and herbicidal and defoliant compositions containing them” (ISK Americas Incorporated, priority 1997, dated 2002).

Key:
Type in all cases: in vivo
[1] = system: redroot pigweed (Amaranthus retroflexus, AMARE); experiment: Pre-emerge test, greenhouse herbicide activity screening; conditions: pre-emerge, phytotoxicity rating 0-100 at 14 days after application
In short: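 Plants grown in 10 cm pots of sandy loam mix received acetone-dissolved compounds through a moving flat-fan nozzle. Doses ranged from 15 to 1000 g ai/ha. Pre-emerge pots were seeded one day earlier, post-emerge pots 8–21 days earlier. Fourteen days on, each pot was graded 0–100 for damage.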

[2] = system: barnyardgrass (Echinochloa crus-galli, ECHCG); experiment: as above; conditions: pre-emerge, phytotoxicity rating 0-100 at 14 days after application
In short: (§1)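 Visual ratings on a 0-100 scale (0 no damage, 100 all plants dead) were taken at 14 days after treatment. Rates of 15-1000 g ai/ha in acetone, 187 l/ha, were sprayed onto soil one day after planting (pre-emerge) or onto 2-3 leaf plants with 0.25% v/v surfactant (post-emerge).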

[3] = system: green foxtail (Setaria viridis, SETVI); experiment: as above; conditions: pre-emerge, phytotoxicity rating 0-100 at 14 days after application
In short: as §1

[4] = system: ivyleaf morningglory (Ipomoea hederacea, IPOHE); experiment: as above; conditions: pre-emerge, phytotoxicity rating 0-100 at 14 days after application
In short: as §1

[5] = system: lambsquarters (Chenopodium album, CHEAL); experiment: as above; conditions: pre-emerge, phytotoxicity rating 0-100 at 14 days after application
In short: as §1

[6] = system: large crabgrass (Digitaria sanguinalis, DIGSA); experiment: as above; conditions: pre-emerge, phytotoxicity rating 0-100 at 14 days after application
In short: as §1

[7] = system: sicklepod (Cassia obtusifolia, CASOB); experiment: as above; conditions: pre-emerge, phytotoxicity rating 0-100 at 14 days after application
In short: as §1

[8] = system: velvetleaf (Abutilon theophrasti, ABUTH); experiment: as above; conditions: pre-emerge, phytotoxicity rating 0-100 at 14 days after application
In short: as §1

[9] = system: field corn (Zea mays L., var. Dekalb 535, CORN); experiment: Pre-emerge test, crop safety; conditions: crop damage, pre-emerge, phytotoxicity rating 0-100 at 14 days after application
In short: (§2)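 Compounds in acetone were track-sprayed at 15-1000 g ai/ha (187 l/ha) on sandy loam pots: pre-emerge one day after seeding, post-emerge at 2-3 leaf stage with 0.25% v/v non-ionic surfactant. Phytotoxicity was rated 14 days later on a 0 (no damage) to 100 (complete death) scale.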

[10] = system: upland rice (Oryza sp., var. Tebonnet, RICE); experiment: Pre-emerge test, crop safety; conditions: crop damage, pre-emerge, phytotoxicity rating 0-100 at 14 days after application
In short: as §2

[11] = system: barnyardgrass (Echinochloa crus-galli, ECHCG); experiment: Post-emerge test, greenhouse herbicide activity screening; conditions: post-emerge, phytotoxicity rating 0-100 at 14 days after application
Text: (§3) A standard greenhouse herbicide activity screening system was used to evaluate the herbicidal efficacy and crop safety of these test compounds. Seven broadleaf weed species including redroot pigweed (Amaranthus retroflexus, AMARE, velvetleaf (Abutilon theophrasti, ABUTH), sicklepod (Cassia obtusifolia, CASOB), ivyleaf morningglory (Ipomoea hederacea, IPOHE), lambsquarters (Chenopodium album, CHEAL), common ragweed (Ambrosia artemisizfolia L., AMBEL), and cocklebur (Xanthium strumarium, XANST) were used as test species. Four grass weed species including green foxtail (Setaria viridis, SETVI), barnyardgrass (Echinochloa crus-galli, ECHCG), johnsongrass (Sorghum halepense, SORHA), and large crabgrass (Digitaria sanguinalis, DIGSA) were also used. In addition, three crop species, field corn (Zea mays L., var. Dekalb 535, CORN), soybean (Glycine max L., var. Pella 86, SOY), and is upland rice (Oryza sp., var. Tebonnet, RICE) were included.
(§4) All plants were grown in 10 cm square plastic pots which were filled with a sandy loam soil mix. For pre-emerge tests, seeds were planted one day prior to application of the test compounds. For post-emerge tests, seeds were planted 8-21 days prior to the test to allow emergence and good foliage development prior to application of the test substances. At the time of the post-emerge application, plants of all species were usually at the 2-3 leaf stage of development.
(§5) All test compounds Were dissolved in acetone and applied to the test units in a volume of 187 l /ha. Test materials were applied at rates ranging from 15 g ai/ha to 1000 g ai/ha using a track sprayer equipped with a TJ8001E even flow flat fan spray nozzle. Plants were arranged on a shelf so that the top of the canopy (post-emerge) or top of the soil surface (pre-emerge) was 40-45 cm below the nozzle. Pressurized air was used to force the test solution through the nozzle as it was mechanically advanced (via electrically driven chain drive) over the top of all test plants/pots. This application simulates a typical commercial field herbicide application.
(§6) In the post-emerge test, a commercial non-ionic surfactant was also included (0.25% v/v) to enhance wetting of the leaf surfaces of target plants. Immediately after application, test units of the pre-emerge applications were watered at the soil surface to incorporate the test materials. Subsequently, these test units were bottom-watered. Post-emerge test units were always bottom-watered.
(§7) At 14 days after application of the test materials, phytotoxicity ratings were recorded. A rating scale of 0-100 was used as previously described in Research Methods in Weed Science, 2nd edition, B. Truelove, Ed., Southern Weed Science Society, Auburn University, Auburn, Ala. 1977. Briefly, “0” corresponds to no damage and “100” corresponds to complete death of all plants in the test unit. This scale was used both to determine efficacy against weed species and damage to crop species. Herbicide activity data for various compounds of this invention, which are shown by compound No. in Tables 1-8, are shown in Tables 11 and 12.

[12] = system: green foxtail (Setaria viridis, SETVI); experiment: as above; conditions: post-emerge, phytotoxicity rating 0-100 at 14 days after application
Text: as §3, §4, §5, §6, §7

[13] = system: ivyleaf morningglory (Ipomoea hederacea, IPOHE); experiment: as above; conditions: post-emerge, phytotoxicity rating 0-100 at 14 days after application
Text: as §3, §4, §5, §6, §7

[14] = system: lambsquarters (Chenopodium album, CHEAL); experiment: as above; conditions: post-emerge, phytotoxicity rating 0-100 at 14 days after application
Text: as §3, §4, §5, §6, §7

[15] = system: large crabgrass (Digitaria sanguinalis, DIGSA); experiment: as above; conditions: post-emerge, phytotoxicity rating 0-100 at 14 days after application
Text: as §3, §4, §5, §6, §7

[16] = system: redroot pigweed (Amaranthus retroflexus, AMARE); experiment: as above; conditions: post-emerge, phytotoxicity rating 0-100 at 14 days after application
Text: as §3, §4, §5, §6, §7

[17] = system: sicklepod (Cassia obtusifolia, CASOB); experiment: as above; conditions: post-emerge, phytotoxicity rating 0-100 at 14 days after application
Text: as §3, §4, §5, §6, §7

[18] = system: velvetleaf (Abutilon theophrasti, ABUTH); experiment: as above; conditions: post-emerge, phytotoxicity rating 0-100 at 14 days after application
Text: as §3, §4, §5, §6, §7

[19] = system: field corn (Zea mays L., var. Dekalb 535, CORN); experiment: Post-emerge test, crop safety; conditions: post-emerge, crop damage rating 0-100 at 14 days after application
In short: as §1

[20] = system: upland rice (Oryza sp., var. Tebonnet, RICE); experiment: Post-emerge test, crop safety; conditions: post-emerge, crop damage rating 0-100 at 14 days after application
In short: as §1

| Structure (SMILES) | Pre-emerge Herbicidal Activity AMARE ([1]; rate 63 g ai/ha) | Pre-emerge Herbicidal Activity AMARE ([1]; rate 250 g ai/ha) | Pre-emerge Herbicidal Activity ECHCG ([2]; rate 63 g ai/ha) | Pre-emerge Herbicidal Activity ECHCG ([2]; rate 250 g ai/ha) | Pre-emerge Herbicidal Activity SETVI ([3]; rate 63 g ai/ha) | Pre-emerge Herbicidal Activity SETVI ([3]; rate 250 g ai/ha) | Pre-emerge Herbicidal Activity IPOHE ([4]; rate 63 g ai/ha) | Pre-emerge Herbicidal Activity IPOHE ([4]; rate 250 g ai/ha) | Pre-emerge Herbicidal Activity CHEAL ([5]; rate 63 g ai/ha) | Pre-emerge Herbicidal Activity CHEAL ([5]; rate 250 g ai/ha) | Pre-emerge Herbicidal Activity DIGSA ([6]; rate 63 g ai/ha) | Pre-emerge Herbicidal Activity DIGSA ([6]; rate 250 g ai/ha) | Pre-emerge Herbicidal Activity CASOB ([7]; rate 63 g ai/ha) | Pre-emerge Herbicidal Activity CASOB ([7]; rate 250 g ai/ha) | Pre-emerge Herbicidal Activity ABUTH ([8]; rate 63 g ai/ha) | Pre-emerge Herbicidal Activity ABUTH ([8]; rate 250 g ai/ha) | Pre-emerge Herbicidal Activity CORN ([9]; rate 63 g ai/ha) | Pre-emerge Herbicidal Activity CORN ([9]; rate 250 g ai/ha) | Pre-emerge Herbicidal Activity RICE ([10]; rate 63 g ai/ha) | Pre-emerge Herbicidal Activity RICE ([10]; rate 250 g ai/ha) | also measured |
| --- | --- | --- | --- | --- | --- | --- | --- | --- | --- | --- | --- | --- | --- | --- | --- | --- | --- | --- | --- | --- | --- |
| Cc1cccc(COC(=O)Nc2c(C)c(Cl)cc(F)c2-n2c(=O)cc(C(F)(F)F)n(C)c2=O)c1 [4-68] | 100 | 100 | 60 | 98 | 100 | 100 | 40 | 100 | 100 | 100 | 100 | 100 | 40 | 100 | 100 | 100 | 45 | 80 | 50 | 90 | Post-emerge Herbicidal Activity ECHCG ([11]; 63 g ai/ha): 90; Post-emerge Herbicidal Activity ECHCG ([11]; 250 g ai/ha): 98; Post-emerge Herbicidal Activity SETVI ([12]; 63 g ai/ha): 100; Post-emerge Herbicidal Activity SETVI ([12]; 250 g ai/ha): 100; Post-emerge Herbicidal Activity IPOHE ([13]; 63 g ai/ha): 100; Post-emerge Herbicidal Activity IPOHE ([13]; 250 g ai/ha): 100; Post-emerge Herbicidal Activity CHEAL ([14]; 63 g ai/ha): 100; Post-emerge Herbicidal Activity CHEAL ([14]; 250 g ai/ha): 100; Post-emerge Herbicidal Activity DIGSA ([15]; 63 g ai/ha): 75; Post-emerge Herbicidal Activity DIGSA ([15]; 250 g ai/ha): 90; Post-emerge Herbicidal Activity AMARE ([16]; 63 g ai/ha): 100; Post-emerge Herbicidal Activity AMARE ([16]; 250 g ai/ha): 100; Post-emerge Herbicidal Activity CASOB ([17]; 63 g ai/ha): 100; Post-emerge Herbicidal Activity CASOB ([17]; 250 g ai/ha): 100; Post-emerge Herbicidal Activity ABUTH ([18]; 63 g ai/ha): 100; Post-emerge Herbicidal Activity ABUTH ([18]; 250 g ai/ha): 100; Post-emerge Herbicidal Activity CORN ([19]; 63 g ai/ha): 95; Post-emerge Herbicidal Activity CORN ([19]; 250 g ai/ha): 100; Post-emerge Herbicidal Activity RICE ([20]; 63 g ai/ha): 60; Post-emerge Herbicidal Activity RICE ([20]; 250 g ai/ha): 80 |
| Cc1cc(C)c(COC(=O)Nc2c(C)c(Cl)cc(F)c2-n2c(=O)cc(C(F)(F)F)n(C)c2=O)c(C)c1 [4-69] | 30 | 80 | 30 | 70 | 95 | 100 | 0 | 40 | 70 | 90 | 100 | 100 | 0 | 50 | 80 | 90 | 0 | 0 | 10 | 30 | Post-emerge Herbicidal Activity ECHCG ([11]; 63 g ai/ha): 20; Post-emerge Herbicidal Activity ECHCG ([11]; 250 g ai/ha): 40; Post-emerge Herbicidal Activity SETVI ([12]; 63 g ai/ha): 40; Post-emerge Herbicidal Activity SETVI ([12]; 250 g ai/ha): 80; Post-emerge Herbicidal Activity IPOHE ([13]; 63 g ai/ha): 70; Post-emerge Herbicidal Activity IPOHE ([13]; 250 g ai/ha): 100; Post-emerge Herbicidal Activity CHEAL ([14]; 63 g ai/ha): 90; Post-emerge Herbicidal Activity CHEAL ([14]; 250 g ai/ha): 100; Post-emerge Herbicidal Activity DIGSA ([15]; 63 g ai/ha): 20; Post-emerge Herbicidal Activity DIGSA ([15]; 250 g ai/ha): 50; Post-emerge Herbicidal Activity AMARE ([16]; 63 g ai/ha): 100; Post-emerge Herbicidal Activity AMARE ([16]; 250 g ai/ha): 100; Post-emerge Herbicidal Activity CASOB ([17]; 63 g ai/ha): 40; Post-emerge Herbicidal Activity CASOB ([17]; 250 g ai/ha): 70; Post-emerge Herbicidal Activity ABUTH ([18]; 63 g ai/ha): 100; Post-emerge Herbicidal Activity ABUTH ([18]; 250 g ai/ha): 100; Post-emerge Herbicidal Activity CORN ([19]; 63 g ai/ha): 5; Post-emerge Herbicidal Activity CORN ([19]; 250 g ai/ha): 35; Post-emerge Herbicidal Activity RICE ([20]; 63 g ai/ha): 0; Post-emerge Herbicidal Activity RICE ([20]; 250 g ai/ha): 40 |
